According to PMC12490239, “Combining BET inhibition with SMAC mimetics restricts tumor growth and triggers immune surveillance in preclinical cancer models” (Cell Reports Medicine, 2025):

Assays:
Experiment in all cases: cells
Design in all cases: CellTiter-Glo 2.0 luminescence proliferation/viability assay, single agents, human tumour cell line panel
SNUC2B = settings: Homo sapiens, SNU-C2B, 96 h; single agent; read-out: IC50 SMACm
Summary of the method: (§1)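 Human tumour cell lines were seeded into assay plates and held at 37°C with 5% CO2 for twenty-four hours, then exposed in triplicate to rising concentrations of the SMAC mimetic, from 4.5 nM to 10 μM, with DMSO as control. After 96 h, viability was read as CellTiter-Glo2.0 luminescence to derive single-agent IC50 values.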

IM-95 = settings: Homo sapiens, IM95, 96 h; single agent; read-out: IC50 SMACm
Summary of the method: as §1

NCI-H1975 = settings: Homo sapiens, NCI-H1975, 96 h; single agent; read-out: IC50 SMACm
Summary of the method: as §1

HCC-15 = settings: HCC15, 96 h; single agent; read-out: IC50 SMACm
Summary of the method: as §1

SW1417 = settings: Homo sapiens, SW1417, 96 h; single agent; read-out: IC50 SMACm
Summary of the method: as §1

RERF-LC-Ad2 = settings: RERF-LC-Ad2, 96 h; single agent; read-out: IC50 SMACm
Summary of the method: as §1

COLO-201 = settings: Homo sapiens, COLO 201, 96 h; single agent; read-out: IC50 SMACm
Summary of the method: as §1

HCC2998 = settings: Homo sapiens, HCC 2998, 96 h; single agent; read-out: IC50 SMACm
Summary of the method: as §1

CAPAN-2 = settings: Homo sapiens, Capan-2, 96 h; single agent; read-out: IC50 SMACm
Summary of the method: as §1

SNU-216 = settings: SNU-216, 96 h; single agent; read-out: IC50 SMACm
Summary of the method: as §1

HT-115 = settings: HT115, 96 h; single agent; read-out: IC50 SMACm
Summary of the method: as §1

LU-99 = settings: Homo sapiens, Lu-99, 96 h; single agent; read-out: IC50 SMACm
Summary of the method: as §1

KP-4 = settings: Homo sapiens, KP-4, 96 h; single agent; read-out: IC50 SMACm
Summary of the method: as §1

KE-39 = settings: 96 h; single agent; read-out: IC50 SMACm
Summary of the method: as §1

- IC50 (SNUC2B): 0.137 µM
- IC50 (NCI-H1975): 4.63 µM
- IC50 (HCC-15): 4.6 µM
- IC50 (SW1417): 3.9 µM
- IC50 (COLO-201): 0.369 µM
- IC50 (HCC2998): 3.06 µM
- IC50 (SNU-216): 4.32 µM
Compound: CN[C@@H](C)C(=O)Nc1ccc(-c2c(-c3cccnc3OC)nc3cc(C)ccn23)c(C#Cc2ccc3c(C)nccc3c2)n1 [SMACm, BI 891065]
- IC50 (IM-95): 1.24 µM
- IC50 (RERF-LC-Ad2): 2.52 µM
- IC50 (CAPAN-2): 8.59 µM
- IC50 (HT-115): 3.87 µM
- IC50 (LU-99): 7.37 µM
- IC50 (KP-4): 4.16 µM
- IC50 (KE-39): 3.86 µM
